Laboratory results: the NIST ThermoML archive (doi:10.1016/j.jct.2015.11.009)

Columns and labels:
[1] = refractive index (Na D-line) (dimensionless); xn = mol fraction of the nth substance listed; conditions: 100 kPa, Liquid, Standard Abbe refractometry
[2] = xn = mol fraction of the nth substance listed; conditions: 100 kPa, Liquid; for speed of sound: Frequency=3 MHz, Sing-around technique in a fixed-path interferometer; for mass density: Vibrating tube method

O=C1CCCN1 [2-pyrrolidinone] + CCCCn1cc[n+](C)c1.F[B-](F)(F)F
Conditions	mass density, [2] [kg/m3]	refractive index, [1]	speed of sound, [2] [m/s]
298.15 K, x2 = 0	1107.16	1.48591	1634.4
298.15 K, x2 = 0.102	1128.93	1.47414	1625.5
298.15 K, x2 = 0.1951	1143.99	1.46433	1618
298.15 K, x2 = 0.3046	1155.01	1.45472	1608.3
298.15 K, x2 = 0.3886	1163.44	1.4487	1601
298.15 K, x2 = 0.5262	1173.25	1.44033	1590.7
298.15 K, x2 = 0.6185	1179.38	1.43543	1584.4
298.15 K, x2 = 0.69	1183.57	1.43222	1579.5
298.15 K, x2 = 0.7844	1188.69	1.4283	1574.3
298.15 K, x2 = 0.8861	1193.47	1.42468	1569.2
303.15 K, x2 = 0	1103.07	1.48403	1618
303.15 K, x2 = 0.102	1124.98	1.47243	1610.2
303.15 K, x2 = 0.1951	1139	1.46228	1604.1
303.15 K, x2 = 0.3046	1151.24	1.45316	1594.5
303.15 K, x2 = 0.3886	1159.65	1.44722	1587.5
303.15 K, x2 = 0.5262	1169.51	1.43885	1578.1
303.15 K, x2 = 0.6185	1175.68	1.43414	1572.5
303.15 K, x2 = 0.69	1179.91	1.43084	1567.2
303.15 K, x2 = 0.7844	1185.05	1.42696	1562.2
303.15 K, x2 = 0.8861	1189.85	1.42338	1557.3
308.15 K, x2 = 0	1098.99	1.48218	1601.6
308.15 K, x2 = 0.102	1121.03	1.47067	1595.5
308.15 K, x2 = 0.1951	1135.12	1.461	1589.2
308.15 K, x2 = 0.3046	1147.43	1.45161	1580.2
308.15 K, x2 = 0.3886	1155.87	1.44571	1573.8
308.15 K, x2 = 0.5262	1165.8	1.43737	1565.4
308.15 K, x2 = 0.6185	1172.01	1.43271	1560.1
308.15 K, x2 = 0.69	1176.26	1.42943	1554.7
308.15 K, x2 = 0.7844	1181.42	1.4256	1550
308.15 K, x2 = 0.8861	1186.26	1.42205	1545.4
313.15 K, x2 = 0	1094.9	1.48033	1585.4
313.15 K, x2 = 0.102	1117.09	1.46895	1580.5
313.15 K, x2 = 0.1951	1131.25	1.45929	1575
313.15 K, x2 = 0.3046	1143.62	1.44998	1566.5
313.15 K, x2 = 0.3886	1152.11	1.44418	1560.7
313.15 K, x2 = 0.5262	1162.12	1.43589	1552.7
313.15 K, x2 = 0.6185	1168.35	1.43125	1547.9
313.15 K, x2 = 0.69	1172.63	1.42805	1542.5
313.15 K, x2 = 0.7844	1177.81	1.4242	1537.9
313.15 K, x2 = 0.8861	1182.68	1.42069	1533.5
318.15 K, x2 = 0	1090.82	1.47841	1570.4
318.15 K, x2 = 0.102	1113.15	1.46715	1566
318.15 K, x2 = 0.1951	1127.38	1.45813	1560.9
318.15 K, x2 = 0.3046	1139.83	1.44832	1553.8
318.15 K, x2 = 0.3886	1148.36	1.44261	1547.8
318.15 K, x2 = 0.5262	1158.47	1.43436	1541.2
318.15 K, x2 = 0.6185	1164.72	1.42972	1536.4
318.15 K, x2 = 0.69	1169.02	1.42665	1530.7
318.15 K, x2 = 0.7844	1174.23	1.42286	1526.2
318.15 K, x2 = 0.8861	1179.12	1.41928	1521.9
323.15 K, x2 = 0	1086.75	1.47649	1553.5
323.15 K, x2 = 0.102	1109.21	1.46522	1550
323.15 K, x2 = 0.1951	1123.52	1.45533	1545.8
323.15 K, x2 = 0.3046	1136.08	1.44663	1539.4
323.15 K, x2 = 0.3886	1144.62	1.44099	1534.3
323.15 K, x2 = 0.5262	1154.82	1.43282	1528
323.15 K, x2 = 0.6185	1161.11	1.42817	1524
323.15 K, x2 = 0.69	1165.45	1.42522	1519.2
323.15 K, x2 = 0.7844	1170.66	1.42148	1514.2
323.15 K, x2 = 0.8861	1175.58	1.41788	1510.2
